In ChEMBL document CHEMBL1201862, “PubChem BioAssay data set” (2004):
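Briefly, cells in 96-well plates were exposed to five compound concentrations for 48 h, and endpoints were estimated by linear interpolation. Abbreviation: GI50, concentration required for 50% inhibition of growth.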 Active and inactive are the calls of the source. Cut-off read from the data, not from the text of the source: active = GI50 up to about 1.1 µM and inactive = higher.

What was measured:
Assay in all cases: NCI tumour cell line growth inhibition, 48 h
SK-MEL-2 = test system: SK-MEL-2
KM12 = test system: KM12
ACHN = test system: ACHN
DU-145 = test system: DU-145
HCT-15 = test system: HCT-15
NCI-H23 = test system: NCI-H23
UACC-257 = test system: UACC-257
NCI-H522 = test system: NCI-H522
MDA-MB-231 = test system: MDA-MB-231
RXF 393 = test system: RXF 393
HCT-116 = test system: HCT-116
NCI-H226 = test system: NCI-H226
SW-620 = test system: SW-620
HOP-92 = test system: HOP-92
M14 = test system: M14
EKVX = test system: EKVX
OVCAR-3 = test system: OVCAR-3
Hs-578T = test system: Hs-578T
SNB-19 = test system: SNB-19
SF-539 = test system: SF-539
786-0 = test system: 786-0
BT-549 = test system: BT-549
SK-OV-3 = test system: SK-OV-3
T47D = test system: T47D
SF-295 = test system: SF-295
COLO 205 = test system: COLO 205
OVCAR-5 = test system: OVCAR-5
CAKI-1 = test system: CAKI-1
HOP-62 = test system: HOP-62
UACC-62 = test system: UACC-62
SNB-75 = test system: SNB-75
NCI/ADR-RES = test system: NCI/ADR-RES
Malme-3M = test system: Malme-3M
A498 = test system: A498
U-251 = test system: U-251
A549 = test system: A549
SK-MEL-5 = test system: SK-MEL-5
TK-10 = test system: TK-10
NCI-H460 = test system: NCI-H460
HCC 2998 = test system: HCC 2998
MOLT-4 = test system: MOLT-4
MDA-MB-435 = test system: MDA-MB-435
OVCAR-4 = test system: OVCAR-4
SF-268 = test system: SF-268
SR = test system: SR
PC-3 = test system: PC-3
UO-31 = test system: UO-31
HT-29 = test system: HT-29
IGROV-1 = test system: IGROV-1
LOX IMVI = test system: LOX IMVI
RPMI-8226 = test system: RPMI-8226
HL-60 = test system: HL-60
CCRF-CEM = test system: CCRF-CEM
OVCAR-8 = test system: OVCAR-8
SK-MEL-28 = test system: SK-MEL-28
K562 = test system: K562
SN12C = test system: SN12C
MCF7 = test system: MCF7

Cc1c(/C=N\NC(=S)N(C)CCN(C)C(=S)N/N=C\c2c(C)n(C)n(-c3ccccc3)c2=O)c(=O)n(-c2ccccc2)n1C
GI50 (SK-MEL-2): > 100 µM (inactive) | GI50 (KM12): > 100 µM (inactive) | GI50 (ACHN): > 100 µM (inactive) | GI50 (DU-145): > 100 µM (inactive) | GI50 (HCT-15): > 100 µM | GI50 (NCI-H23): > 100 µM (inactive) | GI50 (UACC-257): > 100 µM (inactive) | GI50 (NCI-H522): 41.7 µM (inactive) | GI50 (MDA-MB-231): > 100 µM (inactive) | GI50 (RXF 393): > 100 µM (inactive) | GI50 (HCT-116): > 100 µM (inactive) | GI50 (NCI-H226): > 100 µM (inactive) | GI50 (SW-620): > 100 µM (inactive) | GI50 (HOP-92): > 100 µM (inactive) | GI50 (M14): > 100 µM (inactive) | GI50 (EKVX): > 100 µM (inactive) | GI50 (OVCAR-3): > 100 µM (inactive) | GI50 (Hs-578T): > 100 µM (inactive) | GI50 (SNB-19): > 100 µM (inactive) | GI50 (SF-539): > 100 µM (inactive) | GI50 (786-0): > 100 µM (inactive) | GI50 (BT-549): > 100 µM (inactive) | GI50 (SK-OV-3): > 100 µM (inactive) | GI50 (T47D): > 100 µM (inactive) | GI50 (SF-295): > 100 µM (inactive) | GI50 (COLO 205): > 100 µM (inactive) | GI50 (OVCAR-5): > 100 µM (inactive) | GI50 (CAKI-1): > 100 µM (inactive) | GI50 (HOP-62): > 100 µM (inactive) | GI50 (UACC-62): > 100 µM (inactive) | GI50 (SNB-75): 42.6 µM (inactive) | GI50 (NCI/ADR-RES): > 100 µM (inactive) | GI50 (Malme-3M): 55.7 µM (inactive) | GI50 (A498): > 100 µM (inactive) | GI50 (U-251): > 100 µM (inactive) | GI50 (A549): > 100 µM (inactive) | GI50 (SK-MEL-5): > 100 µM (inactive) | GI50 (TK-10): > 100 µM (inactive) | GI50 (NCI-H460): > 100 µM (inactive) | GI50 (HCC 2998): > 100 µM (inactive) | GI50 (MOLT-4): > 100 µM (inactive) | GI50 (MDA-MB-435): > 100 µM (inactive) | GI50 (OVCAR-4): > 100 µM (inactive) | GI50 (SF-268): > 100 µM (inactive) | GI50 (SR): 35.3 µM (inactive) | GI50 (PC-3): > 100 µM (inactive) | GI50 (UO-31): > 100 µM (inactive) | GI50 (HT-29): > 100 µM (inactive)

C#CCNC(Cc1ccccc1)C(=O)O (configuration not stated)
GI50 (IGROV-1): > 100 µM (inactive) | GI50 (LOX IMVI): > 100 µM (inactive) | GI50 (SK-MEL-2): > 100 µM (inactive) | GI50 (KM12): > 100 µM (inactive) | GI50 (ACHN): > 100 µM (inactive) | GI50 (DU-145): > 100 µM (inactive) | GI50 (HCT-15): > 100 µM | GI50 (RPMI-8226): > 100 µM (inactive) | GI50 (NCI-H23): > 100 µM (inactive) | GI50 (UACC-257): > 100 µM (inactive) | GI50 (NCI-H522): > 100 µM (inactive) | GI50 (MDA-MB-231): > 100 µM (inactive) | GI50 (HL-60): > 100 µM (inactive) | GI50 (RXF 393): > 100 µM (inactive) | GI50 (HCT-116): > 100 µM (inactive) | GI50 (NCI-H226): > 100 µM (inactive) | GI50 (SW-620): > 100 µM (inactive) | GI50 (CCRF-CEM): > 100 µM (inactive) | GI50 (OVCAR-8): > 100 µM (inactive) | GI50 (SK-MEL-28): > 100 µM (inactive) | GI50 (HOP-92): > 100 µM (inactive) | GI50 (M14): > 100 µM (inactive) | GI50 (K562): > 100 µM (inactive) | GI50 (EKVX): > 100 µM (inactive) | GI50 (OVCAR-3): > 100 µM (inactive) | GI50 (Hs-578T): > 100 µM (inactive) | GI50 (SNB-19): > 100 µM (inactive) | GI50 (786-0): > 100 µM (inactive) | GI50 (BT-549): > 100 µM (inactive) | GI50 (SK-OV-3): > 100 µM (inactive) | GI50 (T47D): > 100 µM (inactive) | GI50 (SF-295): > 100 µM (inactive) | GI50 (COLO 205): > 100 µM (inactive) | GI50 (OVCAR-5): > 100 µM (inactive) | GI50 (CAKI-1): > 100 µM (inactive) | GI50 (HOP-62): > 100 µM (inactive) | GI50 (UACC-62): > 100 µM (inactive) | GI50 (SNB-75): > 100 µM (inactive) | GI50 (NCI/ADR-RES): > 100 µM (inactive) | GI50 (Malme-3M): > 100 µM (inactive) | GI50 (A498): > 100 µM (inactive) | GI50 (U-251): > 100 µM (inactive) | GI50 (A549): > 100 µM (inactive) | GI50 (SK-MEL-5): > 100 µM (inactive) | GI50 (TK-10): > 100 µM (inactive) | GI50 (NCI-H460): > 100 µM (inactive) | GI50 (HCC 2998): > 100 µM (inactive) | GI50 (MOLT-4): > 100 µM (inactive) | GI50 (MDA-MB-435): > 100 µM (inactive) | GI50 (OVCAR-4): > 100 µM (inactive) | GI50 (SF-268): > 100 µM (inactive) | GI50 (SR): > 100 µM (inactive) | GI50 (PC-3): > 100 µM (inactive) | GI50 (UO-31): > 100 µM (inactive) | GI50 (HT-29): > 100 µM (inactive)

CCOC(=O)C(C(=O)OCC)C(=O)c1ccccc1C(=O)c1ccccc1
GI50 (IGROV-1): > 100 µM (inactive) | GI50 (LOX IMVI): > 100 µM (inactive) | GI50 (SK-MEL-2): > 100 µM (inactive) | GI50 (KM12): > 100 µM (inactive) | GI50 (ACHN): > 100 µM (inactive) | GI50 (DU-145): 43.8 µM (inactive) | GI50 (HCT-15): > 100 µM | GI50 (SN12C): > 100 µM (inactive) | GI50 (NCI-H23): > 100 µM (inactive) | GI50 (UACC-257): > 100 µM (inactive) | GI50 (NCI-H522): > 100 µM (inactive) | GI50 (MDA-MB-231): > 100 µM (inactive) | GI50 (HL-60): > 100 µM (inactive) | GI50 (RXF 393): > 100 µM (inactive) | GI50 (HCT-116): 59 µM (inactive) | GI50 (NCI-H226): > 100 µM (inactive) | GI50 (SW-620): 19.5 µM (inactive) | GI50 (CCRF-CEM): 96.2 µM (inactive) | GI50 (MCF7): > 100 µM (inactive) | GI50 (HOP-92): > 100 µM (inactive) | GI50 (M14): > 100 µM (inactive) | GI50 (K562): > 100 µM (inactive) | GI50 (EKVX): 26.1 µM (inactive) | GI50 (OVCAR-3): 74 µM (inactive) | GI50 (Hs-578T): 84.7 µM (inactive) | GI50 (SNB-19): > 100 µM (inactive) | GI50 (SF-539): > 100 µM (inactive) | GI50 (786-0): > 100 µM (inactive) | GI50 (BT-549): 33.4 µM (inactive) | GI50 (SK-OV-3): > 100 µM (inactive) | GI50 (T47D): > 100 µM (inactive) | GI50 (SF-295): > 100 µM (inactive) | GI50 (COLO 205): > 100 µM (inactive) | GI50 (OVCAR-5): > 100 µM (inactive) | GI50 (CAKI-1): > 100 µM (inactive) | GI50 (HOP-62): > 100 µM (inactive) | GI50 (UACC-62): > 100 µM (inactive) | GI50 (SNB-75): > 100 µM (inactive) | GI50 (NCI/ADR-RES): > 100 µM (inactive) | GI50 (Malme-3M): > 100 µM (inactive) | GI50 (A498): > 100 µM (inactive) | GI50 (U-251): > 100 µM (inactive) | GI50 (A549): > 100 µM (inactive) | GI50 (SK-MEL-5): 97.1 µM (inactive) | GI50 (TK-10): > 100 µM (inactive) | GI50 (NCI-H460): > 100 µM (inactive) | GI50 (HCC 2998): > 100 µM (inactive) | GI50 (MOLT-4): 23.4 µM (inactive) | GI50 (MDA-MB-435): > 100 µM (inactive) | GI50 (OVCAR-4): > 100 µM (inactive) | GI50 (SF-268): > 100 µM (inactive) | GI50 (SR): 18.1 µM (inactive) | GI50 (UO-31): > 100 µM (inactive) | GI50 (HT-29): 28.4 µM (inactive)
